US20080076788A1, “SOLID FORMS OF (3'-CHLOROBIPHENYL-4-YL)(1-(PYRIMIDIN-2-YL)PIPERIDIN-4-YL)METHANONE AND METHODS OF THEIR USE” (priority 2006, published 2008)

How the values were obtained:
[1] = molecular target: T1, Na^+-dependent proline transporter (Homo sapiens, UniProt Q99884); conditions: statement in words, refers to U.S. patent application Ser. Nos. 11/433,057 and 11/433,626; cited from earlier work
T1 sequence (Q99884 1-636): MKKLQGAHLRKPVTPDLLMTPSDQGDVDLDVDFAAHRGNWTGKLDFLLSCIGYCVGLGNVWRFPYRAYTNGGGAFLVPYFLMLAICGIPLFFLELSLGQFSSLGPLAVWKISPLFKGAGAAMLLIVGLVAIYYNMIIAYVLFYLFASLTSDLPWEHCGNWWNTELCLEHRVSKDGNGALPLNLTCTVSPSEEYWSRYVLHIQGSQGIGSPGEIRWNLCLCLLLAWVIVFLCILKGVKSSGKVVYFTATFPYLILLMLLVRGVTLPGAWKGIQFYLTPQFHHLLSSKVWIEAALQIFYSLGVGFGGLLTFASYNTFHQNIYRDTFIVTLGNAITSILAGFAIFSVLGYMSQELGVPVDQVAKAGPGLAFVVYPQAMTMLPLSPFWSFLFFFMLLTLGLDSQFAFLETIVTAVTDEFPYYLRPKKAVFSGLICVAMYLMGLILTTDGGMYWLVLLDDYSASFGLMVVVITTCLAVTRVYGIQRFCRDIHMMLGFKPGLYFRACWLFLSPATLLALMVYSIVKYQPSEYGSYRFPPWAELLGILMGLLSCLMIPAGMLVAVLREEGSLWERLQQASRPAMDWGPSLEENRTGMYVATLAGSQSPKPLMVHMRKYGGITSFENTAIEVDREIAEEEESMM

mice = experiment: Learning and memory in mice after administration of the compound; format: in vivo; conditions: administered to mice

O=C(c1ccc(-c2cccc(Cl)c2)cc1)C1CCN(c2ncccn2)CC1 [(3′-chlorobiphenyl-4-yl)(1-(pyrimidin-2-yl)piperidin-4-yl)methanone]
melting point: ~ 117 °C | inhibition of the Na+-dependent proline transporter [1]: inhibitor | effect on learning and memory (mice): increase learning and memory
